Results published in patent US5770573A, “CS-1 peptidomimetics, compositions and methods of using the same” (Cytel Corporation, priority 1995, dated 1998).
Square brackets hold non-standard residues; d marks the D form. Peptide text beside a SMILES is read from it. * marks the point of attachment. Phe(4-NO2) = N[C@@H](Cc1ccc([N+](=O)[O-])cc1)C(=O)O; Quinoline3carbonyl = O=C(c1cnc2ccccc2c1)*; Cha = N[C@@H](CC1CCCCC1)C(=O)O; Isonicotinoyl = O=C(c1ccncc1)*; NMeD = CN[C@@H](CC(=O)O)C(=O)O; NMeL = CN[C@@H](CC(C)C)C(=O)O; Nle = CCCC[C@H](N)C(=O)O; Pyrrolidide = C1CCN(*)C1; NHDecyl = CCCCCCCCCCN*; PhAc = O=C(Cc1ccccc1)*; X18 = O=C(c1cn[nH]c1)*; Bz = O=C(c1ccccc1)*; OBn = c1ccc(CO*)cc1; OtBu = CC(C)(C)O*; NHBu = CCCCN*

What follows are compounds tested against VLA-4 (Homo sapiens, UniProt P05556+P13612) (assay: In vitro binding inhibition of 51Cr-labeled Jurkat cells to solid phase-bound CS-1 compound (SEQ ID NO:1)). Details: not given.
VLA-4, sequence (P13612 34-1032): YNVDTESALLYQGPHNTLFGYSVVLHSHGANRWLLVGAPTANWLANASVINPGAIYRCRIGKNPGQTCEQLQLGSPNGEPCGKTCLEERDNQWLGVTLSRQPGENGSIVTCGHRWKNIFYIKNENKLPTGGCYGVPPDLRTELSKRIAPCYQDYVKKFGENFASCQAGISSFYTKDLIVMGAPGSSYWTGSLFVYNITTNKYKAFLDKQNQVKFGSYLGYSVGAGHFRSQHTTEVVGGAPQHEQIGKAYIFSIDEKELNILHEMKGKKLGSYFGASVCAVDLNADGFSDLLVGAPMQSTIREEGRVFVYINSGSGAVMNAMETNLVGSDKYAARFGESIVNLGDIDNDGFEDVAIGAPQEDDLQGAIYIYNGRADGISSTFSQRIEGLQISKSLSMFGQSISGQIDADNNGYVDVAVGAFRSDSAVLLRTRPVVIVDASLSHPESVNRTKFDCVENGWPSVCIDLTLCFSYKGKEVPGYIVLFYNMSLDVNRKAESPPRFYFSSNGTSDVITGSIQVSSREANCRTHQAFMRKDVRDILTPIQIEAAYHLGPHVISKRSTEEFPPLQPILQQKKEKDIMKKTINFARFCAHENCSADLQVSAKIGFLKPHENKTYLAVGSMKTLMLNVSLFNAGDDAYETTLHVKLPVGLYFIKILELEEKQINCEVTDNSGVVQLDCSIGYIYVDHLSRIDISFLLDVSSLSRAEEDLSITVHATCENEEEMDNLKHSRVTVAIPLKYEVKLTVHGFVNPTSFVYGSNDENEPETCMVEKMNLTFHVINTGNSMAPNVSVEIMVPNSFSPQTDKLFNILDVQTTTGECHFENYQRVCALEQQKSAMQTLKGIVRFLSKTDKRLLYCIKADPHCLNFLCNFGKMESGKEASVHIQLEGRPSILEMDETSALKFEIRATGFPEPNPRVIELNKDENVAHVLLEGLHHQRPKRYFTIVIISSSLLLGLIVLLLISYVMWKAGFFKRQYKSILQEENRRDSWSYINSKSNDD
VLA-4, sequence (P05556 21-798): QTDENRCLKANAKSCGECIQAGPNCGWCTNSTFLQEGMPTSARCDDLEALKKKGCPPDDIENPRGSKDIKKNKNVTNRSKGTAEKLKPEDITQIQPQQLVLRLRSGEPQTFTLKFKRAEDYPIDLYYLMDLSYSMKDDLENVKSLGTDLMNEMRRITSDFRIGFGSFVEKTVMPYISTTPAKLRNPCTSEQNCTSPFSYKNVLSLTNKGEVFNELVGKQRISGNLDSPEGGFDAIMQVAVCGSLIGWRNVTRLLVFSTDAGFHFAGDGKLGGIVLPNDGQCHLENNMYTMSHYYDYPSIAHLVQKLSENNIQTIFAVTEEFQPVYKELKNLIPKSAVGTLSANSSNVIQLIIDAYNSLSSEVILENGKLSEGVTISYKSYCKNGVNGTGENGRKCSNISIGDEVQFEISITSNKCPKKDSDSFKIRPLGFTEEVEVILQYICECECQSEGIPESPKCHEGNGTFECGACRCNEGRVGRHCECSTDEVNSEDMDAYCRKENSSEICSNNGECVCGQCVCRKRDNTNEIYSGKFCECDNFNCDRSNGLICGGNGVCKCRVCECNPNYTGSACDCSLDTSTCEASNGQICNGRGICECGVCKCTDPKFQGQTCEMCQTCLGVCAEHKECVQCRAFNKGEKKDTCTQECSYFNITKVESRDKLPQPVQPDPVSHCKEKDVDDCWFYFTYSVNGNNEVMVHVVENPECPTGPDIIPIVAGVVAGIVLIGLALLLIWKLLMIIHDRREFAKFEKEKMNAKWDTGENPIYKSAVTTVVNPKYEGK
Type: cell-based
Design: inflammatory cells that contain the VLA-4 receptor [Jurkat cells; host or cells: Jurkat (human T lymphoblastic line)
Protocol: Binding inhibition is measured here as a concentration of compound that inhibits one-half the binding between a standard number of Jurkat cells and a standard amount of CS-1 compound bound to the surface of a microtiter plate well. Those concentrations are conveniently expressed as IC50 values, smaller numbers indicating a lower concentration required to inhibit 50 percent binding and therefore greater potency. Further specifics of this assay are provided hereinafter.
Jurkat cells (ATCC TIB 152), a human T lymphoblastic line, labeled with ^51 chromium were used to assay in vitro binding inhibition provided by various compounds discussed herein.
The plates were prepared as follows: The 25-mer CS-1 compound (SEQ ID NO:1) dissolved at 0.5-1 μg/ml in a buffer of 0.1M NaHCO3 at pH 9.5 that also contained 10 μg/ml of bovine serum albumin (BSA) or a conjugate of the CS-1 compound linked to […] (CS-1-OVA) dissolved at 1-2.5 μg/ml in the same buffer was used as the substrate. Each well of the microtiter plates was coated with 50 μl of substrate or buffer alone for controls. The wells were permitted to dry out completely and were then rinsed twice with PBS at pH 7.4. Non-specific binding sites of each well were then blocked using 200 μl per well of RPMI/1 percent BSA for two hours at room temperature.
Jurkat cells (3-5×10^6 cells) were placed into a 15 ml Falcon™ round-bottom tube with a cap. The tube was centrifuged, and the extra medium was then removed.
Two hundred microliters of a ^51 Cr labeling solution were added to the centrifuged cells and maintained in contact with the cells for 90-120 minutes in a warm room. […] Longer contact times provide a greater amount of labeling but lower cell viability.
The labeled cells are washed with (i) complete medium, (ii) 1 mM EDTA/PBS and then (iii) RPM1/1 percent BSA free of serum components. The cells are centrifuged after each washing. The cells are finally resuspended in serum-free RPMI/1 percent BSA at a concentration of 1×10^6 viable cells/ml, which provides a concentration that is diluted by one-half in the assay.
Inhibitor compounds are prepared as stock solutions at 20 mg/ml in DMSO in 1.5 ml cryogenic screwcap vials, and were stored at -70° C. Using Flow™ round-bottom or V-bottom microtiter plates, the inhibitor compounds were prepared at twice the assay concentration in RPMI/1 percent BSA at 60 μl/well.
Four initial dilutions were typically used.
The ^51 Cr-labeled cells ([…] at 60 μl/well) were then admixed with the diluted compound solutions. The admixtures were maintained at room temperature (about 22° C.) for 30 minutes.
One hundred microliters of each inhibitor compound/cell admixture were transferred to the substrate-coated wells. This was done in triplicate for each dilution. The resulting plates were incubated for 30 minutes at 37° C. and then washed gently three times with RPMI/1 percent BSA at 200 μl/well. Binding was observed microscopically, particularly after the second wash.
The bound cells were then lysed by the addition of a 0.5 percent solution of sodium dodecylsulfate in water at 100 μl/well. The resulting solutions were then processed for counting and calculation of IC50 values following usual procedures.
The data of Table 1 are normalized to the binding of SEQ ID NO: 3. […] Multiple assays for the same compound were averaged.

SMILES | Relative Potency
CC(C)CC(C(=O)NCc1ccccc1)C(=O)N[C@@H](CC(=O)O)C(=O)N[C@@H](Cc1ccccc1)C(=O)N1CCCCC1 (stereo partly drawn) [1034.02] | 0
CC[C@H](C)[C@H](N)C(=O)N[C@@H](CC(C)C)C(=O)N[C@@H](CC(=O)O)C(=O)N[C@@H](CC1CCCCC1)C(=O)N1CCC[C@H]1C(N)=O [926.14] (H-ILD[Cha]P-NH2) | .13
CC(C)C[C@H](NC(=O)C12CC3CC(CC(C3)C1)C2)C(=O)N[C@@H](CC(=O)O)C(=O)N[C@H](C(=O)N1CCC[C@@H]1C(N)=O)C(C)C [896.50] | 1.38
CC(C)C[C@@H](C(=O)N[C@@H](CC(=O)O)C(=O)N[C@H](C(=O)N1CCC[C@@H]1C(N)=O)C(C)C)N1C(=O)c2ccccc2C1=O [896.51] | 110
CC(C)C[C@H](NC(=O)c1cnc2ccccc2c1)C(=O)N[C@@H](CC(=O)O)C(=O)N[C@@H](Cc1ccccc1)C(=O)N1CCC[C@@H]1C(N)=O [951.05] (Quinoline3carbonyl-LDF[dP]-NH2) | 56.3
CC[C@H](C)[C@H](N)C(=O)N(C)[C@@H](CC(C)C)C(=O)N[C@@H](CC(=O)O)C(=O)N[C@H](C(=O)N1CCC[C@H]1C(N)=O)C(C)C [926.11] (H-I[NMeL]DVP-NH2) | .06
CCCC[C@H](NC(=O)[C@H](CC(=O)O)NC(=O)[C@H](CC(C)C)NC(=O)[C@@H](N)[C@@H](C)CC)C(=O)N1CCC[C@H]1C(N)=O [926.15] (H-ILD[Nle]P-NH2) | .08
CC[C@H](C)[C@H](N)C(=O)N[C@@H](CC1CCCCC1)C(=O)N[C@@H](CC(=O)O)C(=O)N[C@@H](Cc1ccccc1)C(=O)N1CCC[C@@H]1C(N)=O [896.29] (H-I[Cha]DF[dP]-NH2) | 2.27
NC(=O)[C@H]1CCCN1C(=O)[C@H](Cc1ccccc1)NC(=O)[C@H](CC(=O)O)NC(=O)c1cc2cc(O)ccc2cc1O [1056.05] | 0
CC(C)C[C@H](NCc1ccccc1)C(=O)N[C@@H](CC(=O)O)C(=O)N[C@@H](Cc1ccccc1)C(=O)N1CCCCC1 [1033.01] | 5.84
CC[C@H](C)[C@H](N)C(=O)N[C@@H](CC(C)C)C(=O)N[C@@H](CC(=O)O)C(=O)N[C@@H](Cc1ccccc1)C(=O)N1CCC[C@@H]1C(N)=O [896.26] (H-ILDF[dP]-NH2) | 5.63
CC(C)C[C@H](NC(=O)c1ccccn1)C(=O)N[C@@H](CC(=O)O)C(=O)N[C@H](C(=O)N1CCC[C@@H]1C(N)=O)C(C)C [896.54] | 13
CC(C)C[C@H](NC(=O)c1cn[nH]c1)C(=O)N[C@@H](CC(=O)O)C(=O)N[C@@H](Cc1ccccc1)C(=O)N1CCC[C@@H]1C(N)=O [951.03] (X18-LDF[dP]-NH2) | 28.2
CC[C@H](C)[C@H](N)C(=O)N[C@@H](CC(C)C)C(=O)N[C@@H](CC(=O)O)C(=O)N[C@@H](Cc1ccccc1)C(=O)N1CCC[C@H]1C(N)=O [926.12] (H-ILDFP-NH2) | 1.99
CC(C)C[C@H](NC(=O)c1ccncc1)C(=O)N[C@@H](CC(=O)O)C(=O)N[C@@H](Cc1ccccc1)C(=O)N1CCC[C@@H]1C(N)=O [951.20] (Isonicotinoyl-LDF[dP]-NH2) | 228

Same assay, conditions: binding inhibition potency relative to standard compound of SEQ ID NO:3 = 1 (normalized IC50); about one-tenth or less assigned zero

SMILES | Relative Potency
CC(C)C[C@H](NC(=O)Cc1ccccc1)C(=O)N(C)[C@@H](CC(=O)O)C(=O)N[C@@H](Cc1ccccc1)C(=O)N1CCC[C@@H]1C(N)=O [1190.06] (PhAc-L[NMeD]F[dP]-NH2) | 0
CC(C)C[C@H](NC(=O)c1ccccc1)C(=O)N[C@@H](CC(=O)O)C(=O)N[C@@H](Cc1ccccc1)C(=O)N1CCC[C@@H]1C(N)=O [896.28] (Bz-LDF[dP]-NH2) | 44.6
CC(C)C[C@H](NC(=O)Cc1ccccc1)C(=O)N[C@@H](CC(=O)O)C(=O)NN(Cc1ccccc1)C(=O)C1CCCC1 [997.15] | 1.28
CC(C)C[C@H](NC(=O)Cc1ccccc1)C(=O)N[C@@H](CC(=O)O)C(=O)N[C@@H](Cc1ccccc1)C(=O)N1CCNCC1 [1051.02] | 507
CC(C)C[C@@H](C(=O)N[C@@H](CC(=O)O)C(=O)N[C@@H](Cc1ccccc1)C(=O)N1CCC[C@@H]1C(N)=O)N(C)C(=O)Cc1ccccc1 [1190.07] (PhAc-[NMeL]DF[dP]-NH2) | 318
CC(C)C[C@H](NC(=O)Cc1ccccc1)C(=O)NC(C(=O)O)C(=O)N[C@@H](Cc1ccccc1)C(=O)N1CCCCC1 (stereo partly drawn) [1026.02] | 0
CC(C)C[C@H](NC(=O)Cc1ccccc1)C(=O)N[C@@H](CC(=O)O)C(=O)NC1CCCCN(CC(N)=O)C1=O (stereo partly drawn) [1057.06] | 97
CCCCNC(=O)[C@H](Cc1ccccc1)NC(=O)[C@H](CC(=O)O)NC(=O)[C@H](CC(C)C)NC(=O)Cc1ccccc1 [1051.03] (PhAc-Leu-Asp-Phe-NHBu) | 2.82
CC(C)C[C@H](NC(=O)Cc1ccccc1)C(=O)N[C@@H](CC(=O)O)C(=O)N[C@@H](Cc1ccc([N+](=O)[O-])cc1)C(=O)N1CCC[C@@H]1C(N)=O [896.68] (PhAc-LD[Phe(4-NO2)][dP]-NH2) | 39.9
CC(C)C[C@H](NC(=O)Cc1ccccc1)C(=O)N[C@@H](CC(=O)O)C(=O)N[C@@H](Cc1ccccc1)C(=O)N1CCCC1 [951.15] (PhAc-Leu-Asp-Phe-Pyrrolidide) | 121
CC(C)C[C@H](NC(=O)Cc1ccccc1)C(=O)N[C@@H](CC(=O)O)C(=O)N1C(=O)N(Cc2ccccc2)C(=O)[C@H]1Cc1ccccc1 [1047.07] | .38
CC(C)C[C@H](NC(=O)Cc1ccccc1)C(=O)N[C@@H](CC(=O)O)C(=O)NC1Cc2ccccc2NC1=O (stereo partly drawn) [997.08] | 23.5
CC(C)C[C@H](NC(=O)Cc1ccccc1)C(=O)N[C@@H](CC(=O)O)C(=O)NCCN1CCOCC1 [997.03] | 12.5
CC(C)C[C@H](NC(=O)Cc1ccccc1)C(=O)N[C@@H](CC(=O)O)C(=O)NNC(=O)OC(C)(C)C [997.13] | 1.57
NC(=O)[C@H]1CCCN1C(=O)[C@H](Cc1ccccc1)NC(=O)[C@H](CC(=O)O)NC(=O)CCCCC1CCSS1 (stereo partly drawn) [1056.09] | 1.1
CC(C)C[C@H](NC(=O)Cc1ccccc1)C(=O)N[C@@H](CC(=O)O)C(=O)N[C@@H](Cc1ccccc1)C(=O)N1CCC[C@H]1CO [951.17] | 163
CC(C)C[C@H](NC(=O)Cc1ccccc1)C(=O)N[C@@H](CC(=O)O)C(=O)N[C@@H](Cc1ccc(O)cc1)C(=O)OC(C)(C)C [1040.02] (PhAc-Leu-Asp-Tyr-OtBu) | 14.7
Cc1ccc(S(=O)(=O)N2CCN(C(=O)[C@H](Cc3ccccc3)NC(=O)[C@H](CC(=O)O)NC(=O)[C@H](CC(C)C)NC(=O)Cc3ccccc3)CC2)cc1 [1111.01] | 363
CC(C)C[C@H](NC(=O)Cc1ccccc1)C(=O)N[C@@H](CC(=O)O)C(=O)N[C@@H](Cc1ccccc1)C(=O)NN1CCOCC1 [1111.10] | 98.9

Same assay, conditions: relative to SEQ ID NO:3 = 1; potency before the prodrug compound is enzymatically converted to an active form

SMILES | Relative Potency (prodrug compound)
CC(C)C[C@H](NC(=O)Cc1ccccc1)C(=O)N[C@@H](CC(=O)OCc1ccccc1)C(=O)N[C@@H](Cc1ccccc1)C(=O)N1CCC[C@@H]1C(N)=O [1068.07] (PhAc-LD(OBn)F[dP]-NH2) | 0
CCCCCCCCCCNC(=O)[C@@H]1CCCN1C(=O)[C@H](Cc1ccccc1)NC(=O)[C@H](CC(=O)O)NC(=O)[C@H](CC(C)C)NC(=O)Cc1ccccc1 [1068.04] (PhAc-LDFP-NHDecyl) | 2.13
